Data taken from patent publication US20050256077A1, “Gastrointestinal stem cells and uses thereof” (priority 2004, published 2005).

Columns and labels:
[1] = tested on: intestinal crypts; experiment: Model I: luminal delivery of cytotoxic drugs to clamped jejunal segment, crypt apoptosis by histology; assay type: in vivo, mouse; details: for apoptosis in experimental segments / apoptosis in upstream segments: luminal delivery to clamped jejunal segment for 4 hr, 20 mg/kg BW; for apoptosis in experimental segments: apoptotic bodies in H & E sections; for apoptosis in upstream segments: segment immediately upstream
Description: A surgical model was developed that is simple and rapid enough to allow appropriate numbers of animals to be studied in a reasonable time period. To this end, a procedure was developed in which a 1 cm piece of jejunum is flushed and then clamped (with microvascular serrefines), the drug or vehicle was delivered to the clamped segment via a 27 gauge needle, the bowel is returned to the abdominal cavity and the incisions in both the peritoneum and the skin are sutured closed. The animal was allowed to regain consciousness for 4-6 hr. At the end of this time there was another brief isofluorane anesthesia, during which the original incisions are opened and the clamps are removed. In addition, at this time the location of the clamps was indicated by a piece of 5-0 silk.
Various doses of DOX and Bleomycin were delivered to clamped segments for 4 hr, then tissue from the experimental segment as well as a segment immediately upstream was collected for histology. Tissue sections were stained with H & E, and apoptosis was assessed by the presence of apoptotic bodies. For quantifying apoptotic cells, 10 crypts per animal (n=3) were selected and scored by a skilled artisan blinded to the experimental conditions. […] Thus, Bleomycin was being absorbed into the circulation and, thus, affecting the entire intestine. In contrast, DOX appears to be capable of local action, thus creating a suitable model for subsequent experiments.
In order to verify that luminally delivered DOX was affecting the stem cell region, the position of apoptotic cells within the crypt was scored. […] This is very similar to the pattern that has been previously reported following IP delivery of DOX (Ijiri and Potten, 1987).

[2] = cited from earlier work
[3] = cited from earlier work; remark: listed apart in the source
[4] = tested on: crypts of the mouse small intestine; details: cited from earlier work; for i.p. dose that causes sterilization of 50% of crypts: dose-response data of Moore (1985)
[5] = cited from earlier work; remark: listed apart in the source
[6] = tested on: intestinal crypts; assay type: in vivo, mice
Description: The following model is preferable for luminal delivery of stem cell preparations, particularly wherein a second clamping procedure, such as the day after the damage, is preferable. As there are already published studies on IP delivery of DOX to mice (Ijiri and Potten, 1987; Moore, 1985), minimal additional studies were needed to establish this model. However, although it was already known that an IP dose of 20 mg/kg/BW DOX elicits apoptosis predominantly in the stem cell zone (Ijiri and Potten, 1987) and ablates approximately 50% of the stem cells (Moore, 1985), a complete time course of apoptosis has not been reported. Considering the nature of the timing of stem cell delivery, an apoptosis time course was performed in FIG. 6. […] In contrast, gross morphologic damage is not seen until 72 hr and appears maximal by 96 hr (FIG. 7). By 120 hr the beginning of crypt regeneration from the remaining stem cells is apparent (not shown). Based on these findings, after DOX the optimal time for luminal delivery of stem cells is 6 hr. […] At the same time, a significant proportion of the endogenous stem cells have been ablated, creating an opportunity for the exogenous cells to engraft. The clamping procedure after IP delivery of DOX has been performed successfully, and no evidence was found of gross bleeding into the clamped segment. There is, however, significant morbidity after the IP DOX. For example, body weights initially fall to a similar extent to that after luminal DOX, but in the case of IP DOX they never recover. Although our 10-day survival data after IP DOX is 100%, the literature predicts 40-50% mortality over the next 2 weeks (Oredipe et al., 2003). However, if the myelosuppressive effects of DOX are countered by administration of the drug Swainsonine (Sigma-Aldrich), for example the mice can be maintained until at least 70 days with only 36% mortality (Oredipe et al., 2003).

[7] = mouse, in vivo; cited from earlier work
[8] = mice; cited from earlier work
[9] = i.p. LD50 (literature); assay type: in vivo; details: mice
[10] = tested on: bone marrow; details: administered systemically (Goodman and Gilman, 1975); cited from earlier work

COc1cccc2c1C(=O)c1c(O)c3c(c(O)c1C2=O)C[C@@](O)(C(=O)CO)C[C@@H]3O[C@H]1C[C@H](N)[C@H](O)[C@H](C)O1 [DOX, doxorubicin]
damage to the basement membrane or to the underlying stromal tissue ([1]; luminal DOX, light and EM levels): no evidence of damage | apoptosis in experimental segments [1]: significant apoptosis | apoptosis in upstream segments [1]: minimal effects | solubility in normal saline [2]: soluble in normal saline | removed by the liver in a single pass [3]: 60% | small intestinal crypts sterilized ([4]; IP 20 mg/kg BW (Moore, 1985)): approximately 50% | stem cells ablated ([4]; IP dose of 20 mg/kg/BW (Moore, 1985)): approximately 50% | i.p. dose that causes sterilization of 50% of crypts [4]: 15 mg/kg | mortality over the next 2 weeks ([5]; after IP DOX, beyond 10 days, literature prediction): 40-50% | time of apoptosis peak ([6]; IP DOX 20 mg/kg BW): 6 h | time of beginning of crypt regeneration from remaining stem cells ([6]; IP DOX 20 mg/kg BW): ≤ 120 h | time of maximal gross morphologic damage ([6]; IP DOX 20 mg/kg BW): ≤ 96 hr | time until gross morphologic damage is seen ([6]; IP DOX 20 mg/kg BW): 72 hr | apoptosis by 24 hr ([6]; IP DOX 20 mg/kg BW, 24 hr): greatly reduced | body weights ([6]; mouse, in vivo, ip): never recover | 10-day survival ([6]; mouse, in vivo, ip, 10 day): 100% | half-life [7]: 35 min

O[C@H]1[C@H]2[C@H](O)CCCN2C[C@H]1O [Swainsonine]
mortality until at least 70 days ([5]; Swainsonine given to counter myelosuppressive effects of DOX): 36%

Bleomycin
i.p. LD50 [8]: 210 mg/kg | i.p. LD50 relative to i.p. dose causing sterilization of 50% of intestinal crypts [9]: ~4 fold | apoptosis in experimental segments [1]: caused apoptosis | apoptosis in upstream segments [1]: caused apoptosis in both experimental segment and upstream segments | solubility in normal saline [2]: soluble in normal saline | toxicity to bone marrow [10]: minimal toxicity to bone marrow | i.p. dose that causes sterilization of 50% of crypts [4]: 60 mg/kg
